In patent US12692254B2, “Benzimidazole inhibitors of PAD enzymes” (BRISTOL-MYERS SQUIBB COMPANY, priority 2018, dated 2026):
pIC50: −log10 of the molar value.

target: human PAD4 (hPAD4) (Homo sapiens, UniProt Q9UM07); test: RFMS human PAD4 functional assay (rapid-fire mass spectrum); assay type: biochemical; settings: 5 nM hPAD4 enzyme, 250 μM BAEE, 50 μM Calcium; 30 min preincubation, 90 min reaction at 37° C.
In short: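 PAD4 (10 nM) preincubated 30 min with compound (top final 50 μM), then BAEE substrate added in pH 7.5 HEPES buffer with DTT, 50 μM calcium, TPEN; 90 min at 37° C. After TCA quench, citrulline derivatized with phenyl glyoxal (4 mM final, 30 min, 37° C) and quantified by RapidFire MS against internal standard.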

Sequence of human PAD4 (hPAD4) (Q9UM07 whole entry): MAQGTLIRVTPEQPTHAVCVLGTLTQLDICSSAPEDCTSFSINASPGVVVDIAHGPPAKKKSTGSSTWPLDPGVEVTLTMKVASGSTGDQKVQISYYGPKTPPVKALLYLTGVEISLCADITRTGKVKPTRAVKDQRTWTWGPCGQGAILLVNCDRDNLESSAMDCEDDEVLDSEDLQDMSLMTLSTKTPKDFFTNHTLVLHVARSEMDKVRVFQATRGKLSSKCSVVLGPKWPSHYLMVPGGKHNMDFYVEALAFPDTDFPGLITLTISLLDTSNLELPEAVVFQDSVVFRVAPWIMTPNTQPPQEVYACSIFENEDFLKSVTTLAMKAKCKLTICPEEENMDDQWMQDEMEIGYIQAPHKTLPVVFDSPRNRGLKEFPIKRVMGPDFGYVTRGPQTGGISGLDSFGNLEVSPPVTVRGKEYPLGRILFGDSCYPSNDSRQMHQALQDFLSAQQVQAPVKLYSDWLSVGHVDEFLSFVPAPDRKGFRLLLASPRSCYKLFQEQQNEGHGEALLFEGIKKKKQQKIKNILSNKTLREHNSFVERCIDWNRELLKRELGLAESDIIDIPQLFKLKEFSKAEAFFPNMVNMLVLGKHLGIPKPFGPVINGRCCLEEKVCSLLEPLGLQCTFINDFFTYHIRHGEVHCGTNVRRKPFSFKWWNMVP

pIC50 | SMILES
5.78 | COc1cc(C(=O)N2CCC[C@@H](N)C2)cc2nc(-c3cc4cccnc4n3CC3CC3)n([C@H]3C[C@@H](N)C3)c12 [Example 303, (3R)-1-{2-[1-(cyclopropylmethyl)-1H-pyrrolo[2,3-b]pyridin-2-yl]-7-methoxy-1-[(1s,3s)-3-aminocyclobutyl]-1H-1,3-benzodiazole-5-carbonyl}piperidin-3-amine]
7.42 | COc1cc(C(=O)N2C[C@H]3CC[C@@H]2[C@@H]3N)cc2nc(-c3cc4cccnc4n3CC3CC3)n(CC3CN(c4cc(C#N)cnc4C#N)C3)c12 [Example 12, 3-[3-({5-[(1R,4R,7R)-7-amino-2-azabicyclo[2.2.1]heptane-2-carbonyl]-2-[1-(cyclopropylmethyl)-1H-pyrrolo[2,3-b]pyridin-2-yl]-7-methoxy-1H-1,3-benzodiazol-1-yl}methyl)azetidin-1-yl]pyridine-2,5-dicarbonitrile]
7.72 | COc1cc(C(=O)N2CC3CCC2[C@@H]3N)cc2nc(-c3cc4ccccc4n3CC3CC3)n(C[C@H]3CCN(c4ccnc(C)n4)C3)c12 (stereo partly drawn) [Example 224, (1R.,4R,7R)-2-{2-[1-(cyclopropylmethyl)-1H-indol-2-yl]-7-methoxy-1-{[(3S)-1-(2-methylpyrimidin-4-yl)pyrrolidin-3-yl]methyl}-1H-1,3-benzodiazole-5-carbonyl}-2-azabicyclo[2.2.1]heptan-7-amine]
7.72 | COc1cc(C(=O)N2C[C@H]3CC[C@@H]2[C@@H]3N)cc2nc(-c3cc4ccccc4n3CC3CC3)n(CC3CN(C(=O)c4ccc(O)cc4F)C3)c12 [Example 147, 4-[3-({5-[(1R,4R,7R)-7-amino-2-azabicyclo[2.2.1]heptane-2-carbonyl]-2-[1-(cyclopropylmethyl)-1H-indol-2-yl]-7-methoxy-1H-1,3-benzodiazol-1-yl}methyl)azetidine-1-carbonyl]-3-fluorophenol]
6.85 | COc1cc(C(=O)N2C[C@H]3CC[C@@H]2[C@@H]3N)cc2nc(-c3cc4cccnc4n3CC3CC3)n(C3CN(C(=O)c4cnc(C#N)nc4)C3)c12 [Example 102, 5-(3-{5-[(1R,4R,7R)-7-amino-2-azabicyclo[2.2.1]heptane-2-carbonyl]-2-[1-(cyclopropylmethyl)-1H-pyrrolo[2,3-b]pyridin-2-yl]-7-methoxy-1H-1,3-benzodiazol-1-yl}azetidine-1-carbonyl)pyrimidine-2-carbonitrile]
7.57 | COc1cc(C(=O)N2C[C@H]3CC[C@@H]2[C@@H]3N)cc2nc(-c3cc4ccccc4n3CC3CC3)n(Cc3cnn(-c4ccccc4)c3)c12 [Example 253, (1R,4R,7R)-2-{2-[1-(cyclopropylmethyl)-1H-indol-2-yl]-7-methoxy-1-[(1-phenyl-1H-pyrazol-4-yl)methyl]-1H-1,3-benzodiazole-5-carbonyl}-2-azabicyclo[2.2.1]heptan-7-amine]
7.28 | COc1cc(C(=O)N2CC3CCC2[C@@H]3N)cc2nc(-c3cc4ccccc4n3CC3CC3)n(CC3CN(C(=O)c4cscn4)C3)c12 (stereo partly drawn) [Example 453, (7R)-2-{2-[1-(cyclopropylmethyl)-1H-indol-2-yl]-7-methoxy-1-{[1-(1,3-thiazole-4-carbonyl)azetidin-3-yl]methyl}-1H-1,3-benzodiazole-5-carbonyl}-2-azabicyclo[2.2.1]heptan-7-amine]
5.80 | COC(=O)N1CC(Cn2c(-c3cc4cccnc4n3CC3CC3)nc3cc(C(=O)N4CCC[C@@H](N)C4)cc(OC)c32)C1 [Example 192, methyl 3-({5-[(3R)-3-aminopiperidine-1-carbonyl]-2-[1-(cyclopropylmethyl)-1H-pyrrolo[2,3-b]pyridin-2-yl]-7-methoxy-1H-1,3-benzodiazol-1-yl}methyl)azetidine-1-carboxylate]
6.79 | COc1cc(C(=O)N2CC3CCC2[C@@H]3N)cc2nc(-c3cc4ccccc4n3CC3CC3)n(Cc3cnn(C)n3)c12 (stereo partly drawn) [Example 505, (7R)-2-{2-[1-(cyclopropylmethyl)-1H-indol-2-yl]-7-methoxy-1-[(2-methyl-2H-1,2,3-triazol-4-yl)methyl]-1H-1,3-benzodiazole-5-carbonyl}-2-azabicyclo[2.2.1]heptan-7-amine]
7.92 | COc1cc(C(=O)N2CC3CCC2[C@@H]3N)cc2nc(-c3cc4ccccc4n3CC3CC3)n(CC3CN(C(=O)C4CCC(F)(F)C4)C3)c12 (stereo partly drawn) [Example 139, (1R,4R,7R)-2-{2-[1-(cyclopropylmethyl)-1H-indol-2-yl]-1-{[1-(3,3-difluorocyclopentanecarbonyl)aze-tidin-3-yl]methyl}-7-methoxy-1H-1,3-benzodiazole-5-carbonyl}-2-azabicyclo[2.2.1]heptan-7-amine]
7.29 | COc1cc(C(=O)N2C[C@H]3CC[C@@H]2[C@@H]3N)cc2nc(-c3cc4cccnc4n3CC3CC3)n(CC3CN(c4ccnc(C#N)n4)C3)c12 [Example 5, 4-[3-({5-[(1R,4R,7R)-7-amino-2-azabicyclo[2.2.1]heptane-2-carbonyl]-2-[1-(cyclopropylmethyl)-1H-pyrrolo[2,3-b]pyridin-2-yl]-7-methoxy-1H-1,3-benzodiazol-1-yl}methyl)azetidin-1-yl]pyrimidine-2-carbonitrile]
7.38 | COc1cc(C(=O)N2CC3CCC2[C@@H]3N)cc2nc(-c3cc4ccccc4n3CC3CC3)n(CC3CN(C(=O)c4cncnc4)C3)c12 (stereo partly drawn) [Example 443, (7R)-2-{2-[1-(cyclopropylmethyl)-1H-indol-2-yl]-7-methoxy-1-{[1-(pyrimidine-5-carbonyl)azetidin-3-yl]methyl}-1H-1,3-benzodiazole-5-carbonyl}-2-azabicyclo[2.2.1]heptan-7-amine]
7.42 | COc1cc(C(=O)N2C[C@H]3CC[C@@H]2[C@@H]3N)cc2nc(-c3cc4cccnc4n3CC3CC3)n(CC3CN(c4ccnc(S(C)(=O)=O)n4)C3)c12 [Example 13, (1R,4R,7R)-2-{2-[1-(cyclopropylmethyl)-1H-pyrrolo[2,3-b]pyridin-2-yl]-1-{[1-(2-methanesulfonylpyrimidin-4-yl)azetidin-3-yl]methyl}-7-methoxy-1H-1,3-benzodiazole-5-carbonyl}-2-azabicyclo[2.2.1]heptan-7-amine]
6.95 | COc1cc(C(=O)N2C[C@H]3CC[C@@H]2[C@@H]3N)cc2nc(-c3cc4cccnc4n3CC3CC3)n(C3CN(C(=O)c4ccc(Cl)nc4)C3)c12 [Example 99, (1R,4R,7R)-2-{1-[1-(6-chloropyridine-3-carbonyl)azetidin-3-yl]-2-[1-(cyclopropylmethyl)-1H-pyrrolo[2,3-b]pyridin-2-yl]-7-methoxy-1H-1,3-benzodiazole-5-carbonyl}-2-azabicyclo[2.2.1]heptan-7-amine]
7.48 | COc1cc(C(=O)N2CC3CCC2[C@@H]3N)cc2nc(-c3cc4cccnc4n3CC3CC3)n(CC3CN(C(=O)c4ccc(F)cc4F)C3)c12 (stereo partly drawn) [Example 434, (7R)-2-{2-[1-(cyclopropylmethyl)-1H-pyrrolo[2,3-b]pyridin-2-yl]-1-{[1-(2,4-difluorobenzoyl)azetidin-3-yl]methyl}-7-methoxy-1H-1,3-benzodiazole-5-carbonyl}-2-azabicyclo[2.2.1]heptan-7-amine]
7.36 | COc1cc(C(=O)N2CC3CCC2[C@@H]3N)cc2nc(-c3cc4ccccc4n3CC3CC3)n(CC3CN(C(=O)c4cncs4)C3)c12 (stereo partly drawn) [Example 448, (7R)-2-{2-[1-(cyclopropylmethyl)-1H-indol-2-yl]-7-methoxy-1-{[1-(1,3-thiazole-5-carbonyl)azetidin-3-yl]methyl}-1H-1,3-benzodiazole-5-carbonyl}-2-azabicyclo[2.2.1]heptan-7-amine]
7.52 | Cn1cc(Cn2c(-c3cc4ccccc4n3CC3CC3)nc3cc(C(=O)N4CC5CCC4[C@@H]5N)cc(F)c32)cn1 (stereo partly drawn) [Example 483, (7R)-2-{2-[1-(cyclopropylmethyl)-1H-indol-2-yl]-7-fluoro-1-[(1-methyl-1H-pyrazol-4-yl)methyl]-1H-1,3-benzodiazole-5-carbonyl}-2-azabicyclo[2.2.1]heptan-7-amine]
6.94 | COc1cc(C(=O)N2C[C@H]3CC[C@@H]2[C@@H]3N)cc2nc(-c3cc4ccccc4n3CC3CC3)n(Cc3ccon3)c12 [Example 268, (1R,4R,7R)-2-{2-[1-(cyclopropylmethyl)-1H-indol-2-yl]-7-methoxy-1-[(1,2-oxazol-3-yl)methyl]-1H-1,3-benzodiazole-5-carbonyl}-2-azabicyclo[2.2.1]heptan-7-amine]
6.61 | COc1cc(C(=O)N2C[C@H]3CC[C@@H]2[C@@H]3N)cc2nc(-c3cc4cccnc4n3CC3CC3)n(CC3CNC3)c12 [Example 306, (1R,4R,7R)-2-{1-[(azetidin-3-yl)methyl]-2-[1-(cyclopropylmethyl)-1H-pyrrolo[2,3-b]pyridin-2-yl]-7-methoxy-1H-1,3-benzodiazole-5-carbonyl}-2-azabicyclo[2.2.1]heptan-7-amine]
7.08 | N[C@@H]1C2CCC1N(C(=O)c1ccc3c(c1)nc(-c1cc4cccnc4n1CC1CC1)n3CC1CN(C(=O)c3ccccc3)C1)C2 (stereo partly drawn) [Example 465, (7R)-2-{1-[(1-benozylazetidin-3-yl)methyl]-2-[1-(cyclopropylmethyl)-1H-pyrrolo[2,3-b]pyridin-2-yl]-1H-1,3-benzodiazole-5-carbonyl}-2-azabicyclo[2.2.1]heptan-7-amine]
6.78 | COc1cc(C(=O)N2C[C@H]3CC[C@@H]2[C@@H]3N)cc2nc(-c3cc4cccnc4n3CC3CC3)n(CC3CN(c4nnc(C)o4)C3)c12 [Example 56, (1R,4R,7R)-2-{2-[1-(cyclopropylmethyl)-1H-pyrrolo[2,3-b]pyridin-2-yl]-7-methoxy-1-{[1-(5-methyl-1,3,4-oxadiazol-2-yl)azetidin-3-yl]methyl}-1H-1,3-benzodiazole-5-carbonyl}-2-azabicyclo[2.2.1]heptan-7-amine]
